The values below come from patent US7888025B2, “Intestinal folate transporter method” (Albert Einstein College of Medicine of Yeshiva University, priority 2007, dated 2011).

Positions count from the first letter of the chain named. In names and notes the source's numbering stands. Read-outs that look alike come from different tables or passages of the source.

The term Km denotes the concentration of substrate that gives half-maximal velocity.

Test [1] concerns the target T1, G21 (PCFT) (Homo sapiens, UniProt Q96NT5).
T1 construct: expressed in transfected cells; host or cells: Xenopus laevis oocytes injected with capped G21 cRNA (pSPT64, SP6)
T1 sequence (Q96NT5 1-459): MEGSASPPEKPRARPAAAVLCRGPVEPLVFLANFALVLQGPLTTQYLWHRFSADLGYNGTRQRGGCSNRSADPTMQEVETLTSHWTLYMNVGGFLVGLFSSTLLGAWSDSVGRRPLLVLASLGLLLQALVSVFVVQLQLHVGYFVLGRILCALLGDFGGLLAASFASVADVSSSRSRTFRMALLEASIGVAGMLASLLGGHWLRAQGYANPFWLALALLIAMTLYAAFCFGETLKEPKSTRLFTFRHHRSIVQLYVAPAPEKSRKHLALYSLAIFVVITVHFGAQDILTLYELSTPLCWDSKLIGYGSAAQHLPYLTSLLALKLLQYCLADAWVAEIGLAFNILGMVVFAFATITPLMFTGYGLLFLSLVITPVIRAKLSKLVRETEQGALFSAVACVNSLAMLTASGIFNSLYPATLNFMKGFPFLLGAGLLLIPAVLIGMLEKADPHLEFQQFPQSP
The experiment in a line: Inhibition of [3H]folic acid uptake into G21 cRNA-injected Xenopus oocytes. In kind it is cell-based. The settings on record: 20 μM nonlabeled compound, pH 5.5, 30 min. On the procedure:
Uptake studies in Xenopus oocytes. […] Radiotracer uptake was determined 3 or 4 days later. […] Uptake was halted by the addition of ice-cold MBS (pH 7.5). Oocytes were washed 10 times thereafter, and solubilized with 10% SDS for measurement of radioactivity. To collapse the pH gradient across the oocyte membrane, seven to 10 oocytes were incubated in MBS (pH 5.5) containing 0, 10, 20, 40, 60 μM FCCP for 20 min, and uptake of transport substrates assessed at pH 5.5.

For test [2], the target named is T1, G21 (PCFT). The experiment in a line: Uptake of tritiated folates in G21 cRNA-injected Xenopus oocytes. Type of test: cell-based. Particulars: for G21-mediated transport activity: pH 7.5, 2 μM tritiated substrate, 30 min. The method, then: Uptake studies in Xenopus oocytes. Defolliculated Xenopus laevis oocytes were prepared as described (Jansen and Akabas, 2006) and injected with 50 nl of water or G21 cRNA (30 ng). Radiotracer uptake was determined 3 or 4 days later. Seven to 10 oocytes were incubated in 500 μl of Modified Barth's Solution (MBS, in mM, 88 NaCl, 2.4 NaHCO3, 2.5 Na pyruvate, 1 KCl, 0.82 MgSO4, 0.41 CaCl2, 0.3 Ca(NO3)2, 15 MES or HEPES) and uptake of tritiated folate substrates assessed at room temperature. Uptake was halted by the addition of ice-cold MBS (pH 7.5). Oocytes were washed 10 times thereafter, and solubilized with 10% SDS for measurement of radioactivity. To collapse the pH gradient across the oocyte membrane, seven to 10 oocytes were incubated in MBS (pH 5.5) containing 0, 10, 20, 40, 60 μM FCCP for 20 min, and uptake of transport substrates assessed at pH 5.5.

Test [3] addresses T1, G21 (PCFT). Kind of test: Two-electrode voltage-clamp electrophysiology in G21 cRNA-injected Xenopus oocytes. In kind it is cell-based. Particulars: for Km: read-out: electrophysiologically determined Km. On the procedure:
Electrophysiological analyses in Xenopus oocytes. Defolliculated oocytes were injected with 50 nl of water (control) or G21 cRNA (50 ng), and kept at 17° C. in horse serum medium (in mM, 82.5 NaCl, 2.5 KCl, 1 MgCl2, 2.3 CaCl2, 5 HEPES, 5% horse serum, pH 7.5). Electrophysiological recordings were conducted 3-7 days after cRNA injection in buffer (in mM, 90 NaCl, 1 KCl, 1 MgCl2, 1.8 CaCl2, 5 TRIS, 5 MES) as described previously (Jansen and Akabas, 2006). Oocyte holding potential was −80 mV for Km determination. For current-voltage (I-V) relationships, from a −60 mV holding potential step changes in membrane potential were applied for 2 s in 10 mV increments between −100 and 30 mV in the absence and presence of substrate.
A general note: Two-electrode voltage clamp holds a large cell at a set potential and records current.

For test [4], the system named is PCFT. The experiment in a line: [3H](6S)5-methylTHF uptake in HeLa cells transiently transfected with mutated PCFT cDNA. Particulars: pH 5.5, 37° C., 2 min; for residual transport activity as compared to the wild-type transporter: 0.5 μM [3H](6S)5-methylTHF, mock background subtracted; for [3H](6S)5-methylTHF uptake (transport function): 0.5 μM, transiently transfected HeLa cells. In kind it is cell-based, human. The text has this:
Analysis of G21 in a family with hereditary folate malabsorption. Members of a family with hereditary folate malabsorption were studied according to a protocol and Informed Consent in the subjects' native language approved by the Albert Einstein College of Medicine IRB (CCI#2006-279). Whole blood was used for isolation of genomic DNA by a Genomic DNA Purification Kit (Gentra Systems, Minneapolis, Minn.) and to generate EBV-transformed human B-lymphoblastoid cell lines in the Einstein Human Genetics Cell Culture Core. Each G21 exon with flanking regions was amplified using Taq DNA polymerase, Q-solution (Qiagen, Valencia, Calif.) and primers listed in Table 4. G21 or RFC cDNA were amplified from lymphoblastoid cells by RT-PCR. PCR products were gel-purified and sequenced in an ABI 3730 DNA Analyzer (Applied Biosystems). The mutated region was verified by sequencing both DNA strands. An expression vector of the mutated G21 in which exon 3 was skipped (GenBank accession number: BC010691) was purchased from Open Biosystems and, along with pcDNA3.1(+)G21 (wild type), was used for an assay of transport function. Western blot analysis on whole cell lysate and cellular localization was performed as described above.
Site-directed mutagenesis. PCFT cDNA was cloned in pCDNA 3.1 (+) and mutations in the coding region were introduced by site-directed mutagenesis using PfuTurbo® DNA polymerase (Stratagene, La Jolla, Calif.) as described previously (Zhao et al., 2000). The entire PCFT coding region in the plasmid was sequenced to verify the presence of the mutation.
Transient transfections and assessment of 5-methylTHF transport. Plasmid concentrations were determined by UV absorption and verified by agarose gel analysis. HeLa cells were seeded and transiently transfected in 20 ml glass scintillation vials (Research Products International Corp., Mt. Prospect, Ill.) and after two days, [^3H]5-methylTHF uptake was assessed (Qiu et al., 2006). EBV-transformed B-lymphoblastoid cells, generated from blood (P6 and P7), were washed twice with, and resuspended in, unbuffered saline (160 mM NaCl, 5 mM KCl, 2 mM MgCl2, 5 mM glucose). Uptake was initiated by injection of the cell suspension into MES-buffered saline (pH 5.5) containing 0.5 μM [^3H]5-methylTHF. Surface binding was assessed by measuring [^3H]5-methylTHF associated with cells at 0° C. and the bound component was subtracted from total uptake.

Setting [5] is: changing the pH from 5.5 to 6.5.
The mark [6] stands for this setting: increasing the pH from 6.5 to 7.5.
[7] abbreviates: 10 μM FCCP, 20 min pre-incubation, extracellular pH 5.5, 2 μM substrate.

As to `Nc1nc2[nH]cc(CCc3ccc(C(=O)N[C@@H](CCC(=O)O)C(=O)O)cc3)c2c(=O)[nH]1` [pemetrexed], the “inhibitory effect on uptake of 2 μM [3H]folic acid” value (shortened to “inhibitory effect on uptake of 2 μM”) in test [1] is reported as “most potent competitor”.
With `Nc1nc2c(c(=O)[nH]1)N(C=O)[C@@H](CNc1ccc(C(=O)N[C@@H](CCC(=O)O)C(=O)O)cc1)CN2` [(6S)5-FTHF, (6S)5-formyltetrahydrofolate], the G21-mediated transport activity entry in test [2] is recorded as “residual activity”. Moreover, the “inhibitory effect on uptake of 2 μM” value in test [1] was “more potent than the unnatural 6R isomer”.
For `CN(Cc1cnc2nc(N)nc(N)c2n1)c1ccc(C(=O)N[C@@H](CCC(=O)O)C(=O)O)cc1` [MTX, methotrexate], the “shift of reversal potential” value is listed as −8 mV in test [3] (setting [5]) and −36 mV in test [3] (setting [6]). Moreover, the “lowest concentration at which current was detected” value in test [3] (pH 5.5, Vh −80 mV) turned out to be 0.1 µM. Also, the “current amplitude larger than (6S)5-MTHF-induced current” value in test [3] (saturating concentrations, same oocyte, pH 5.5) is reported as 86±11%. Further, in test [1], the “inhibitory effect on uptake of 2 μM” value is “less effective competitor than folic acid”.
As to `C[C@H](CCC(=O)O)[C@H]1CC[C@H]2[C@@H]3[C@H](O)C[C@@H]4C[C@H](O)CC[C@]4(C)[C@H]3C[C@H](O)[C@]12C` [cholic acid], in test [1], the “inhibitory effect on uptake of 2 μM” value is on record as “did not inhibit”.
With `C[C@]12CC[C@@H]3c4ccc(OS(=O)(=O)O)cc4CC[C@H]3[C@@H]1CCC2=O` [estrone-3-sulfate], in test [1], the “inhibitory effect on uptake of 2 μM” value was “did not inhibit”.
On to `N#CC(C#N)=NNc1ccc(OC(F)(F)F)cc1` [FCCP, carbonyl cyanide 4-(trifluoromethoxy) phenylhydrazone], for which, in test [2] (setting [7]), the “effect on [3H]MTX uptake” value is listed as “markedly decreased” and the “effect on [3H]folic acid uptake” value is recorded as “markedly decreased”.
Regarding `C[C@H](CCC(=O)NCCS(=O)(=O)O)[C@H]1CC[C@H]2[C@@H]3[C@H](O)C[C@@H]4C[C@H](O)CC[C@]4(C)[C@H]3C[C@H](O)[C@]12C` [taurocholic acid], in test [1], the “inhibitory effect on uptake of 2 μM” value is listed as “did not inhibit”.
In the case of `O=C1OC(c2ccc(O)c(S(=O)(=O)O)c2)(c2ccc(O)c(S(=O)(=O)O)c2)c2c(Br)c(Br)c(Br)c(Br)c21` [Bromosulphopthalein], the “inhibitory effect on uptake of 2 μM” value in test [1] is “did not inhibit”.
As for `Nc1ccc(C(=O)NCC(=O)O)cc1` [para-aminohippuric acid], the “inhibitory effect on uptake of 2 μM” value in test [1] is “did not inhibit”.
Take `CN1c2c(nc(N)[nH]c2=O)NC[C@@H]1CNc1ccc(C(=O)N[C@@H](CCC(=O)O)C(=O)O)cc1` [(6S)5-MTHF, (6S)5-methyltetrahydrofolate]: the entries for the “shift of reversal potential” value in test [3] (setting [5]) and in test [3] (setting [6]) were −6 mV and −30 mV, respectively. Moreover, the Km was determined as 530 ± 40 nM in test [3] (pH 5.5, holding potential −80 mV) and 780 ± 140 nM in test [3] (pH 6.5, holding potential −80 mV). In test [2], the G21-mediated transport activity entry is on record as “residual activity”. In addition, in test [1], the “inhibitory effect on uptake of 2 μM” value is “comparable to those of (6S)5-FTHF”.

B1: G147R: human PCFT mutant protein (protein, UniProt Q96NT5 1-459, looked up, variant G147R)
Proton-coupled folate …: T1 sequence (Q96NT5 1-459) with G147R
With B1, the “residual transport activity as compared to the wild-type transporter” value in test [4] was determined as 7.0%.

B2: P425R: human PCFT mutant protein (protein, UniProt Q96NT5 1-459, looked up, variant P425R)
Proton-coupled folate …: T1 sequence (Q96NT5 1-459) with P425R
Take B2: the “residual transport activity as compared to the wild-type transporter” value in test [4] is 3.4%.

B3: S318R: human PCFT mutant protein (protein, UniProt Q96NT5 1-459, looked up, variant S318R)
Proton-coupled folate …: T1 sequence (Q96NT5 1-459) with S318R
For B3, the “[3H](6S)5-methylTHF uptake (transport function)” value (shortened to “[3H](6S)5-methylTHF uptake”) in test [4] is on record as “essentially no uptake”.

B4: R113S: human PCFT mutant protein (protein, UniProt Q96NT5 1-459, looked up, variant R113S)
Proton-coupled folate …: T1 sequence (Q96NT5 1-459) with R113S
As to B4, in test [4], the “[3H](6S)5-methylTHF uptake” value was “essentially no uptake”.

B5: mutated G21 carrier: exon 3-deleted G21 (PCFT) protein, in-frame deletion of 28 amino acids (protein, listed as Homo sapiens)
chain: MEGSASPPEKPRARPAAAVLCRGPVEPLVFLANFALVLQGPLTTQYLWHRFSADLGYNGTRQRGGCSNRSADPTMQEVETLTSHWTLYMNVGGFLVGLFSSTLLGAWSDSVGRRPLLVLASLGLLLQALVSVFVVQLQLHVGYFVLGRILCALLGDFGGLLAASFASVADVSSSRSRTFRMALLEASIGVAGMLASLLGGHWLRAQGYANPFWLALALLIAMTLYAAFCFGETLKEPKSTRLFTFRHHRSIVQLYVAPAPEKSRKHLALYSLAIFVVITVHFGAQDILTLYELSTPLCWDSKLIGYGSAAQHLPYLTSLLALKLLQYCLADAWVAEIGLAFNILGMVVFAFATITPLMFTGALFSAVACVNSLAMLTASGIFNSLYPATLNFMKGFPFLLGAGLLLIPAVLIGMLEKADPHLEFQQFPQSP
For the molecule B5, the “[3H](6S)5-methylTHF uptake” value in test [4] is “lacked transport function”.
